The values below come from patent US11235020B2, “Methods and compositions for inhibiting glyoxalase 1 (GLO1)” (priority 2013, dated 2022).

The test system of data set [1] is anxiety-like behavior and locomotion in mice. Description: Open field (OF) test. The data set is classed as in vivo, mouse. As for the experimental part: OF test: Mice were placed into the center of the OF, and activity was monitored for five to ten minutes. The apparatus was illuminated to approximately 40 lux. Data were collected and processed using the manufacturer's software (AccuScan Instruments).
OF test: Ten minutes post-injection, mice were placed into the center of the OF. The apparatus was illuminated to approximately 40 lux. Behavior was measured as described above.
OF test replication studies: Ten to twenty minutes post-injection, mice were tested in the OF for five to ten minutes. In some experiments, behavior was scored as described above. In other experiments, mice were tested in the OF, and behavior was automatically scored by the Noldus Ethovision System. For mice tested in the Noldus system, the apparatus was illuminated to approximately 1,000 lux.
Chronic MG administration: For five days, mice were injected twice daily with vehicle or MG (4 mg/kg). Twelve hours after the final injection, mice were tested in the OF as described above.
Pure MG: Pure MG was obtained from Dr. John Termini at the City of Hope, Duarte, Calif. It was administered at the indicated doses by i.p. injection. Mice were tested as described above.
OF test: Two hours post-injection, mice were tested in the OF test as described above. The center size was 10×10 cm. The apparatus was illuminated to approximately 40 lux.

The subject of data set [2] is depression-like behavior in mice. Description: Tail suspension test (TST). The data set is classed as in vivo, mouse. The note with it: pBBG pretreatment. As for the experimental part:
Mice were suspended by their tails using adhesive tape attached to a bar elevated approximately 46 cm above a table. The apparatus was illuminated to approximately 1,000 lux. Mice were tested individually, and time spent immobile was scored manually for six minutes. For MG studies, mice were treated with vehicle (0.9% saline) or crude MG (Sigma-Aldrich, 50 mg/kg) by i.p. injection ten minutes before the test. Behavior was scored for five minutes.

For data set [3], the system named is pilocarpine-induced seizures. Description: Pilocarpine-induced seizures. The data set is classed as in vivo, mouse. As for the experimental part: Drug administration: All experiments with MG utilized crude MG obtained from Sigma-Aldrich. For pre-treatment, MG (50 or 200 mg/kg) or vehicle (0.9% saline) was administered by i.p. injection 10 minutes before the seizure-inducing agent. For treatment after seizure onset, MG (200 mg/kg) or vehicle (0.9% saline) was administered by i.p. injection ten minutes after seizure onset. For GLO1 inhibition, BrBzGCp2 (50 mg/kg) or vehicle (8% DMSO and 18% Tween-80) was administered by i.p. injection two hours before seizure induction.
Seizure induction: For picrotoxin-induced seizures, 5 mg/kg of picrotoxin in 0.9% saline was administered by i.p. injection. Seizures were scored for one hour after picrotoxin administration. For pilocarpine-induced seizures, mice were pre-treated with atropine (5 mg/kg in 0.9% saline) by i.p. injection in order to reduce the peripheral effects of pilocarpine. Thirty minutes after atropine administration, pilocarpine was administered by i.p. injection. B6 mice were treated with 250 mg/kg pilocarpine in 0.9% saline, and FVB mice (WT and Tg) were treated with 300 mg/kg pilocarpine in 0.9% saline. Seizures were scored for 90 minutes after pilocarpine administration.
Pilocarpine-induced seizures were scored as previously reported (Winawer 2011):
Stage 1: Immobility/Lying Low
Stage 2: Partial (limbic) seizures. Non-continuous twitching/tremor/shaking of tail/head/body/limbs, forelimb and/or tail extension, rigid posture, repetitive movements, head bobbing
Stage 3: Partial status epilepticus. Continuous tremor/clonic seizures of body and tail while retaining posture
Stage 4: Generalized seizures. Rearing/hyperexcitability/running/falling, tonic extension/clonic seizures with loss of posture
Stage 5: Generalized status epilepticus (continuous stage 4 seizures) resulting in death

Data set [4] deals with anxiety-like behavior and locomotion in mice. Kind of data set: Open field (OF) test. The data set is classed as in vivo, mouse. The conditions noted are these: 14 days.
Data set [5] addresses purified human GLO1 (Homo sapiens, UniProt Q04760). Kind of data set: GLO1 enzymatic activity assay with purified protein. The conditions noted are these: 100 μM BrBzGCp2, 10 ng purified GLO1. The data set is classed as biochemical. The protocol: GLO1 activity was assayed by measuring the rate of formation of S-d-lactoylglutathione (Allen 1993).
Purified protein: 100 ng of purified protein was added to a hemithioacetal substrate, and enzymatic activity was measure as described above.
Enzymatic activity: Vehicle (DMSO) or 100 μM BrBzGCp2 was added to 10 ng of purified human GLO1. Enzymatic activity was measured as described above.

For data set [6], the system named is depression-like behavior in mice. Description: Forced swim test (FST), acute treatment. It is filed as in vivo, mouse. The conditions noted are these: pBBG 50 mg/kg i.p., two hours later; C57BL/6J, FVB/nJ and BALB/cJ mice. The protocol:
The forced swim test (FST) is a highly reliable screen used to predict antidepressant efficacy after acute antidepressant treatments (Petit-Demouliere, Chenu & Bourin 2005). The FST relies on the phenomenon that relative to no treatment, mice receiving treatment with antidepressants will spend more time performing escape-oriented behaviors than immobile postures. […] Mice on three genetic backgrounds (C57BL/6J, FVB/nJ and BALB/cJ) were treated with 50 mg/kg pBBG (i.p.) and assessed depression-like behavior in the FST two hours later.

Data set [7] addresses T1, GLO1 (Mus musculus, UniProt Q9CPU0).
T1 construct: from tissue; host or cells: whole brain of WT C57BL/6J mice, in vivo dosing
Kind of data set: HPLC measurement of MG concentration in whole brain after i.p. BrBzGCp2. The data set is classed as in vivo. The conditions noted are these: BrBzGCp2 30 mg/kg i.p., two hours. As for the experimental part: MG concentration was measured by HPLC as previously described with modifications (Dhar 2009). Tissue was homogenized in 50 mM sodium phosphate buffer (pH 6.6) and 0.8N perchloric acid. It was then incubated on ice for 10 minutes and centrifuged. The supernatant was filtered, and MG was derivatized with 10 mM o-phenylenediamine to form 2-methylquinoxaline (2-MQ). 5-methylquinoxaline (5-MQ, 15 μM) was spiked into each sample as an internal standard. 2-MQ was quantified using an HP 1100 HPLC system (Agilent) with a Nova-Pak C18 column (Waters Corporation). Column effluent was monitored at 315 nm. 2-MQ concentration was determined by comparison to 2-MQ standards of known mass. Quantification of 2-MQ was corrected for losses by comparison with 5-MQ. MG concentration was calculated as 2-MQ/tissue weight.
Treatment: BrBzGCp2 was dissolved in vehicle (8% DMSO and 18% Tween-80). Mice were treated i.p. with 10 ml/kg BrBzGCp2 or vehicle.
HPLC: 2 hours post-injection, mice were sacrificed, and brains were rapidly dissected and flash-frozen on dry ice. MG concentration was measured as described above.

Data set [8] has as its system mice. Description: Signs of toxicity after chronic administration. The data set is classed as in vivo. The conditions noted are these: chronic pBBG by osmotic minipump. The protocol:
(A) Chronic (14 day) treatment by osmotic minipump with 5 or 10 mg/kg/day pBBG reduced immobility in the FST, establishing that chronic administration has antidepressant effects.

The test system of data set [9] is depression-like behavior in mice. Description: Chronic forced swim test (cFST), osmotic minipump. It is filed as in vivo, mouse. The conditions noted are these: 14 days. The protocol:
To fully assess the therapeutic potential of GLO1 inhibitors, it is necessary to utilize behavioral models sensitive to chronic administration. These models are highly informative as the therapeutic onset of antidepressant action mimics clinical onset in humans. pBBG was administered by osmotic minipumps (Alzet) for 14 days at various doses (0, 5, 10, 15, 30 and 60 mg/kg/day) to establish a dose response curve. Osmotic minipumps are ideal for chronic treatment as they release a constant volume at a very slow rate minimizing the stress of multiple injections.

For data set [10], the system named is mice. Kind of data set: Observation of sedation or gross deficits in treated mice. The conditions noted are these: mice treated with BrBzGCp2.
The mark [11] stands for this setting: BrBzGCp2 30 mg/kg i.p., B6 mice, two hours post-injection.

Sequence of purified human GLO1 (Q04760 whole entry): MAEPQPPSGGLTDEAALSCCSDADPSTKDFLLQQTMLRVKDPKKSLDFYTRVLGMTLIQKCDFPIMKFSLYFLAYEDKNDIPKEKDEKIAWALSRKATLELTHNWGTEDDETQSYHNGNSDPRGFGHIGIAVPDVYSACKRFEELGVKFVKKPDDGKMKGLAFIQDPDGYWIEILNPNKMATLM
T1 sequence (Q9CPU0 2-184 limits assumed): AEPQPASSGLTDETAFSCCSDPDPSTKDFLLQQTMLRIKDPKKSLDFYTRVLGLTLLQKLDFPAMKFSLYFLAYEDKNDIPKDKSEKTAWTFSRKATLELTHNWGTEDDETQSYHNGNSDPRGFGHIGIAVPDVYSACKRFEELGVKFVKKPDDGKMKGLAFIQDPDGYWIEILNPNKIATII

Regarding `N[C@@H](CCC(=O)N[C@@H](CSCc1ccc(Br)cc1)C(=O)NCC(=O)OC1CCCC1)C(=O)OC1CCCC1` [BrBzGCp2, S-bromobenzylglutathione cyclopentyl diester], in data set [1] (setting [11]), the “center time in the OF test” value is listed as “increased center time in the OF test”. The “distance traveled in the OF test” value in data set [1] (setting [11]) was “without changing distance traveled”. Besides, the “anxiogenic effect of the Glo1 duplication in the OF” value in [1] (BrBzGCp2 50 mg/kg i.p., CD-1 mice with Glo1 duplication) was “reversed this effect”. Also, the “center time in the OF” value in data set [1] (BrBzGCp2 50 mg/kg i.p., CD-1 mice, two hours post-injection) is “increased center time in the OF”. The “immobility on the TST” value in data set [2] (C57BL/6J (B6) mice) and in data set [2] (FVB/NJ mice) was “decreased immobility on the TST” each time. Also, the seizure stage entry in [3] (BrBzGCp2 50 mg/kg i.p. two hours before pilocarpine) was “did not affect seizure stage”. The “seizure duration (time in stage 3)” value in data set [3] (BrBzGCp2 50 mg/kg i.p. two hours before pilocarpine 250 mg/kg) is listed as “reduced seizure durations”. In addition, in data set [3] (BrBzGCp2 50 mg/kg i.p. two hours before pilocarpine, data not shown), the seizure latency entry is listed as “did not significantly affect seizure latency”. Moreover, the “total distance traveled in the OFT” value in data set [4] (pBBG 5, 10, or 15 mg/kg/day) is “had no effect on total distance traveled in the OFT”; in [4] (pBBG 15, 30 or 60 mg/kg/day), “also had no effect on total distance traveled”. Also, in [5], the GLO1 enzymatic activity entry is “inhibit GLO1 enzymatic activity in vitro”. Also, the “immobility in the FST” value in [6] is reported as “reduced immobility in all strains”. For the same compound, the “increase of MG concentration in the brain” value in data set [7] is on record as “approximately 20%”. Further, the “signs of toxicity following chronic administration” value in [8] is listed as “none were observed”. The “immobility in the FST compared with fluoxetine” value in [9] (pBBG 5 mg/kg/day) is “reduced immobility in the FST to a similar extent as a selective serotonin reuptake inhibitor”. Further, the “immobility in the FST after chronic treatment” value was “reduce immobility in the FST” in data set [9] (pBBG 5 or 10 mg/kg/day) and “increased immobility in the FST” in [9] (pBBG 30, 60 mg/kg/day). Also, in data set [10], the “sedation or gross deficits” value is “did not display sedation or gross deficits”.
